Test results published in ChEMBL document CHEMBL5528001, “Synthetic product-based approach toward potential antileishmanial drug development” (Eur J Med Chem, 2024).

Legend:
Leishmania infantum [1] = test: Antileishmanial activity against Leishmania infantum MHOM/FR/2008/LEM5700 infected in BALB/c mouse assessed as reduction of parasite burden in liver at 10 mg/kg, po administered for 5 days relative to control; assay type: functional; set-up: scale not given: the % may be the effect or the level left; details: time 5 day
[2] = Cytotoxicity against human WI-38 cells assessed as reduction in cell viability incubated for 48 hrs by MTT assay; assay type: toxicity, cell-based
Leishmania infantum [3] = test: Antileishmanial activity against Leishmania infantum amastigotes infected in human THP-1 cells assessed as reduction in parasite growth; assay type: functional, organism-based
Leishmania infantum [4] = test: Antileishmanial activity against Leishmania infantum LEM 3049 isolate promastigote assessed as reduction in parasite growth after 72 hrs by MTT assay; assay type: functional, organism-based; details: LEM 3049, 72 h
Leishmania donovani [5] = test: Antileishmanial activity against Leishmania donovani promastigotes MHOM/SD/62/1S assessed as inhibition of cell growth measured after 48 hrs by resazurin dye based assay; assay type: functional, organism-based
Leishmania donovani [6] = test: Antileishmanial activity against Leishmania donovani 9515 amastigotes assessed as inhibition of parasite growth incubated for 48 hrs by resazurin dye based assay; assay type: functional, organism-based; details: Leishmania donovani, 9515, 48 h
Leishmania donovani [7] = test: Antileishmanial activity against Leishmania donovani amastigotes MHOM/SD/62/1S assessed as inhibition of cell growth measured after 48 hrs by resazurin dye based assay; assay type: functional, organism-based
[8] = Cytotoxicity against African green monkey Vero cells assessed as reduction in cell viability by MTT assay; assay type: toxicity, cell-based, Chlorocebus sabaeus
Leishmania tropica = test: Antileishmanial activity against Leishmania tropica MHOM/A7/1974/SAF-K27 assessed as reduction in parasite growth incubated for 48 hrs by Neubauer hemocytometer analysis; assay type: functional, organism-based; details: MHOM/A7/1974/SAF-K27, 48 h
Leishmania infantum [9] = test: Antileishmanial activity against Leishmanial infantum amastigotes assessed as inhibition of parasite growth measured after 72 hrs by MTT assay; assay type: functional, organism-based
Leishmania infantum [10] = test: Antileishmanial activity against Leishmania infantum promastigote assessed as inhibition of parasite growth after 72 hrs by MTT assay; assay type: functional, organism-based
HepG2 = test: Cytotoxicity against human HepG2 cells assessed as growth inhibition of cells measured for 48 hrs by MTT assay; assay type: functional, cell-based; details: HepG2, 48 h
Leishmania major = test: Antileishmanial activity against Leishmania major MHOM/IR/-173 assessed as reduction in parasite viability measured for 48 hrs by alamar-blue dye based analysis; assay type: functional, organism-based; details: MHOM/IR/-173, 48 h
Leishmania donovani [11] = test: Antileishmanial activity against Leishmania donovani MHOM/IN/95/9515 assessed as reduction in parasite growth measured for 72 hrs by resazurin dye based analysis; assay type: functional, organism-based; details: MHOM/IN/95/9515, 72 h
[12] = Selectivity index, ratio of CC50 for cytotoxicity against HEK293 cells to IC50 for antileishmanial activity against Leishmania major IR-173 promastigotes; assay type: toxicity, cell-based; details: human, read-out: Ratio CC50/IC50

COc1ccc(Br)cc1CN(C)C12CC3CC(CC(C3)C1)C2
Activity (Leishmania infantum [1]): 59%
CC50 at 48 h [2]: 63700 nM
IC50 (Leishmania infantum [3]): 320 nM

O=C(N/N=C1\C(=O)N(CC(O)COc2cc(=O)oc3ccccc23)c2ccccc21)c1ccncc1 (stereo not given)
IC50 (Leishmania infantum [4]): 30 nM

O=C(N/N=C\c1ccc([N+](=O)[O-])o1)c1ccc(OS(=O)(=O)c2cccnc2)cc1
IC50 (Leishmania donovani [5]): 90 nM
IC50 (Leishmania donovani [6]): 90 nM
IC50 (Leishmania donovani [7]): 90 nM
IC50 [8]: 3260 nM
IC50 (Leishmania tropica): 40 nM

O=C(CCCc1cc2ccccc2[nH]1)Nc1nc2ccccc2c2ccccc12
EC50 (Leishmania infantum [9]): 8900 nM
EC50 (Leishmania infantum [10]): 8530 nM
IC50 (HepG2): 10 nM

Cc1ccc(Cn2cc(COC3=CC(=O)c4ccccc4C3=O)nn2)cc1
IC50 (Leishmania major): 1480 nM
IC50 (Leishmania donovani [11]): 810 nM
selectivity ratio [12]: > 55
